Data: patent US20100041089A1, “IMPROVED METHOD FOR DETECTING CHEMICAL […]” (priority 2006, published 2010)

Tested on: yeast genes (expressed mRNA)
Assay: DNA chip measurement of expressed mRNA of yeast genes after culture with a toxic chemical substance
Type: cell-based, Saccharomyces cerevisiae S288C
Experimental: Yeast (Saccharomyces cerevisiae S288C (a SUC2mal mel gap2 CUP1)) were cultured at 25° C. on YPD medium (yeast extract 1%, polypeptone 2%, glucose 2%). One of toxic chemical substances was added to the cell at logarithmic growth phase, and the cell was further cultured for two hours. Cell was cultured without any chemical substance in the same condition, and was used as a control. Concentrations of the chemical substances were defined to inhibit the growth of the yeast but not lead to death.
After the completion of cultivation, the culture was centrifuged to collect the cells. To the cells, sodium acetate buffer (50 mM sodium acetate, 10 mM EDTA, 1% SDS) was added, and the mixture was shaken at 65° C. for five minutes, followed by returning to room temperature, and obtaining the supernatant, which procedure was repeated two times. To the supernatant, ½ amount of a solution of phenol/chloroform (1:1) was added, and the mixture was centrifuged to give a supernatant, an equal amount of chloroform was added, and the mixture was centrifuged to give a supernatant. To the supernatant, an equal amount of isopropanol containing 0.3 M sodium acetate was added, and the mixture was allowed to stand at room temperature for 30 minutes, after which the mixture was centrifuged to give sediment of the whole RNAs. Seventy % ethanol was added to the sediment, and the mixture was again centrifuged to give sediment, which was then dried and dissolved in water. mRNA was isolated from the whole RNAs as followings. In view of the fact that a poly A chain is attached to the 3′ terminus of mRNA, a polynucleotide having a poly T structure which was immobilized on the surface of latex beads was used to trap the mRNA, and then the mRNA was washed and eluted with spine column (Oligotex-dT30<Super>mRNA Purification Kit, Takara). Reverse transcription of the mRNA was conducted with a reverse transcriptase (Super Script II Reverse Transcriptase; catalogue No. 18064-014, GibcoBRL) using fluorescence-labeled nucleotides to give cDNAs that were introduced with Cy3-dUTP or Cy5-dUTP during the reverse transcription.
The labeled cDNAs were dissolved in TE buffer (10 mM Tris-HCl/1 mM EDTA, pH 8.0), and the solution was dropped on the DNA chip containing the whole genes of yeast (DNA Chip Research Inc. Japan) so that the cDNAs were hybridized on the DNA chip at 65° C. for over 12 hours. The fluoresces intensity of the DNA chip was read with a scanner, and the ratio relative to the fluorescence intensity resulting from the absence of chemical substance was estimated as the following, which is shown in Tables 1 to 9.
In the Tables, “Intensity” indicated in the rightmost column is a value of the level of expressed mRNA of each gene in control cells as divided by the average level of the expressions of the whole genes. A gene of which mRNA level is lower in control, and is higher in cases of addition of chemical substance, is especially useful in the detection of toxic substances.
Here, when a ratio of an amount of mRNA expressed in the presence of the chemical substance to an amount of mRNA expressed in the absence of the chemical substance is two or more, then it is considered significant.

S=C([S-])NCCNC(=S)[S-].[Zn+2] [(11), Zinc N,N′-ethylenebis(dithiocarbamate)]
The level of expressed mRNA in the presence of chemical substance/The level of expressed mRNA in the absence of chemical substance (yeast gene YNL115C, cultured two hours with substance): 1.1 | The level of expressed mRNA in the presence of chemical substance/The level of expressed mRNA in the absence of chemical substance (yeast gene YNL134C, cultured two hours with substance): 5.0 | The level of expressed mRNA in the presence of chemical substance/The level of expressed mRNA in the absence of chemical substance (yeast gene YNL156C, cultured two hours with substance): 1.4 | The level of expressed mRNA in the presence of chemical substance/The level of expressed mRNA in the absence of chemical substance (yeast gene YNL190W, cultured two hours with substance): 1.0 | level of expressed mRNA in the presence of chemical substance / level in the absence of chemical substance (yeast gene YNL194C, cultured two hours with the chemical substance): 17.1 | The level of expressed mRNA in the presence of chemical substance/The level of expressed mRNA in the absence of chemical substance (yeast gene YNL195C, cultured two hours with the chemical substance): 2.9 | The level of expressed mRNA in the presence of chemical substance/The level of expressed mRNA in the absence of chemical substance (yeast gene YNL208W, cultured two hours with substance): 2.5 | The level of expressed mRNA in the presence of chemical substance/The level of expressed mRNA in the absence of chemical substance (yeast gene YNL234W, cultured two hours with substance): 1.3 | The level of expressed mRNA in the presence of chemical substance/The level of expressed mRNA in the absence of chemical substance (yeast gene YNL241C, cultured for two hours with substance): 3.0 | The level of expressed mRNA in the presence of chemical substance/The level of expressed mRNA in the absence of chemical substance (yeast gene YNL281W, cultured two hours with substance): 1.6 | The level of expressed mRNA in the presence of chemical substance/The level of expressed mRNA in the absence of chemical substance (yeast gene YNL300W, cultured two hours with substance): 0.9 | The level of expressed mRNA in the presence of chemical substance/The level of expressed mRNA in the absence of chemical substance (yeast gene YNL305C, cultured two hours with substance): 1.8 | The level of expressed mRNA in the presence of chemical substance/The level of expressed mRNA in the absence of chemical substance (yeast gene YNR064C, cultured two hours with substance): 0.7 | The level of expressed mRNA in the presence of chemical substance/The level of expressed mRNA in the absence of chemical substance (yeast gene YNR068C, cultured two hours with substance): 1.1 | The level of expressed mRNA in the presence of chemical substance/The level of expressed mRNA in the absence of chemical substance (yeast gene YOL032W, cultured two hours with substance): 1.4 | The level of expressed mRNA in the presence of chemical substance/The level of expressed mRNA in the absence of chemical substance (yeast gene YOL036W, cultured two hours with substance): 2.2 | The level of expressed mRNA in the presence of chemical substance/The level of expressed mRNA in the absence of chemical substance (yeast gene YOL047C, cultured two hours with substance): 0.9 | The level of expressed mRNA in the presence of chemical substance/The level of expressed mRNA in the absence of chemical substance (yeast gene YOL071W, cultured two hours with substance): 4.3 | The level of expressed mRNA in the presence of chemical substance/The level of expressed mRNA in the absence of chemical substance (yeast gene YOL082W, cultured two hours with substance): 1.6 | The level of expressed mRNA in the presence of chemical substance/The level of expressed mRNA in the absence of chemical substance (yeast gene YOL083W, cultured two hours with substance): 1.3 | The level of expressed mRNA in the presence of chemical substance/The level of expressed mRNA in the absence of chemical substance (yeast gene YOL117W, cultured two hours with substance): 1.0 | The level of expressed mRNA in the presence of chemical substance/The level of expressed mRNA in the absence of chemical substance (yeast gene YOL131W, cultured two hours with substance): 1.4 | The level of expressed mRNA in the presence of chemical substance/The level of expressed mRNA in the absence of chemical substance (yeast gene YOL150C, cultured two hours with substance): 9.4 | The level of expressed mRNA in the presence of chemical substance/The level of expressed mRNA in the absence of chemical substance (yeast gene YOL152W): 5.9 | The level of expressed mRNA in the presence of chemical substance/The level of expressed mRNA in the absence of chemical substance (yeast gene YOL162W, cultured two hours with substance): 4.3 | The level of expressed mRNA in the presence of chemical substance/The level of expressed mRNA in the absence of chemical substance (yeast gene YOR019W, cultured two hours with substance): 1.7 | The level of expressed mRNA in the presence of chemical substance/The level of expressed mRNA in the absence of chemical substance (yeast gene YOR178C, cultured two hours with the chemical substance): 4.1 | The level of expressed mRNA in the presence of chemical substance/The level of expressed mRNA in the absence of chemical substance (yeast gene YOR197W, cultured two hours with substance): 1.0 | The level of expressed mRNA in the presence of chemical substance/The level of expressed mRNA in the absence of chemical substance (yeast gene YOR215C, cultured two hours with substance): 1.6 | The level of expressed mRNA in the presence of chemical substance/The level of expressed mRNA in the absence of chemical substance (yeast gene YOR225W, cultured two hours with substance): 1.2 | The level of expressed mRNA in the presence of chemical substance/The level of expressed mRNA in the absence of chemical substance (yeast gene YOR248W, cultured two hours with substance): 2.3 | The level of expressed mRNA in the presence of chemical substance/The level of expressed mRNA in the absence of chemical substance (yeast gene YOR382W, cultured two hours with substance): 2.5 | The level of expressed mRNA in the presence of chemical substance/The level of expressed mRNA in the absence of chemical substance (yeast gene YPL052W, cultured two hours with substance): 1.2 | The level of expressed mRNA in the presence of chemical substance/The level of expressed mRNA in the absence of chemical substance (yeast gene YPL087W, cultured two hours with substance): 2.5 | The level of expressed mRNA in the presence of chemical substance/The level of expressed mRNA in the absence of chemical substance (yeast gene YPL171C, cultured for two hours with substance): 37.0 | The level of expressed mRNA in the presence of chemical substance/The level of expressed mRNA in the absence of chemical substance (yeast gene YPL196W, cultured two hours with substance): 1.7 | The level of expressed mRNA in the presence of chemical substance/The level of expressed mRNA in the absence of chemical substance (yeast gene YPL206C, cultured two hours with substance): 1.5 | The level of expressed mRNA in the presence of chemical substance/The level of expressed mRNA in the absence of chemical substance (yeast gene YPL222W, cultured two hours with substance): 1.2 | The level of expressed mRNA in the presence of chemical substance/The level of expressed mRNA in the absence of chemical substance (yeast gene YPR023C, cultured two hours with substance): 1.7 | The level of expressed mRNA in the presence of chemical substance/The level of expressed mRNA in the absence of chemical substance (yeast gene YPR079W, cultured two hours with substance): 0.8 | The level of expressed mRNA in the presence of chemical substance/The level of expressed mRNA in the absence of chemical substance (yeast gene YPR151C, cultured two hours with substance): 1.4
